Legend:
Format in all cases: biochemical
FrbI [1] = target: T1, FrbI (Streptomyces rubellomurinus, UniProt Q0ZQ40); test: HPLC / LC-MS product analysis, coupled with FrbH, FrbF and FrbG; details: 10 mM MgCl2, HEPES pH 7.25, 30 °C; substrate formed in situ
FrbI [2] = target: T1, FrbI; test: in vitro hydrolysis
FrbH = FrbH (Streptomyces rubellomurinus, UniProt Q0ZQ41); test: HPLC / LC-MS product analysis; details: 10 mM MgCl2, HEPES pH 7.25, 30 °C
FrbH, sequence (Q0ZQ41 whole entry): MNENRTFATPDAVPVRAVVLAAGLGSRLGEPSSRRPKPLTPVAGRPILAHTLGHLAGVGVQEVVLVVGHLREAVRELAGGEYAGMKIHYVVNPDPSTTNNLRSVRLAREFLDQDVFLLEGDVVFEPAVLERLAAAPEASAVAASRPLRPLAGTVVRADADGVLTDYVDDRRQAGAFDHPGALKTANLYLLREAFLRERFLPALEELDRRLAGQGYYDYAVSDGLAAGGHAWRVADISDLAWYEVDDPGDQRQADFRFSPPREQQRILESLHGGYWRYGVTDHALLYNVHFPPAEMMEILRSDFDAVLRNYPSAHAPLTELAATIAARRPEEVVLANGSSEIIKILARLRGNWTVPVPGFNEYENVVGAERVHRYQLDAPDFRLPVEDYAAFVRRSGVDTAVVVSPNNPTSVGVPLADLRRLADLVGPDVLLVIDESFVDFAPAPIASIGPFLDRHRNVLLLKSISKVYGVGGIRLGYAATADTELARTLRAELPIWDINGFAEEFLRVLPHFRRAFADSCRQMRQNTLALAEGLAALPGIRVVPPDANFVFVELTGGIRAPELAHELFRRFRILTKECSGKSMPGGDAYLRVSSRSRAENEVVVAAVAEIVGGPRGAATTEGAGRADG

T1 sequence (Q0ZQ40 whole entry): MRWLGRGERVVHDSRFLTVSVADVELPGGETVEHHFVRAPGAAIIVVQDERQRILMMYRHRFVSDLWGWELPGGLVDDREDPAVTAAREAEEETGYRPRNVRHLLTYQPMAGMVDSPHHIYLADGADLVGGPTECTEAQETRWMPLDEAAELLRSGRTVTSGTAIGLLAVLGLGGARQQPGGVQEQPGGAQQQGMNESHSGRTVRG

CC(=O)N(O)CCCP(=O)(O)OP(=O)(O)OC[C@H]1O[C@@H](n2ccc(N)nc2=O)[C@H](O)[C@@H]1O [IX, CMP-5'-FR-900098]
HPLC / LC-MS product analysis, coupled with FrbH, FrbF and FrbG (FrbI [1]): FrbI catalyzes the hydrolysis of CMP-5'-FR-900098 to form FR-900098 and CMP

Nc1ccn([C@@H]2O[C@H](COP(=O)(O)OP(=O)(O)OP(=O)(O)O)[C@@H](O)[C@H]2O)c(=O)n1 [CTP]
in vitro hydrolysis (FrbI [2]): even showed a small amount of activity toward CTP
HPLC / LC-MS product analysis (FrbH; 2 mM (±)-2APn): FrbH condenses 2APn and CTP to form CMP-5'-2APn

NC(CCP(=O)(O)O)C(=O)O (racemic) [VI, 2APn]
HPLC / LC-MS product analysis (FrbH; 1 mM CTP): FrbH condenses 2APn and CTP to form CMP-5'-2APn
